Data taken from patent US11001573B2, “Citric acid derivative” (ADABIO CO., LTD., priority 2015, dated 2021).

Test system: Wistar male rats given galactosamine hydrochloride
Assay: Test on liver dysfunction suppression effect (galactosamine hydrochloride-induced liver disorder, plasma AST/ALT)
Format: in vivo, rat
Details: oral 7 days, 6 g/kg of 6 mg/mL solution, galactosamine hydrochloride 750 mg/kg i.p. on day 7, blood on day 9, vs control administration group (p<0.05, Dunnett)
Experimental: (Preparation of Administration Products for Animal Test)
(1) Preparation of Compound I Administration Product
An 8 N sodium hydroxide aqueous solution was added dropwise to 100 mL of roughly purified solution I in small amounts, while checking the pH with a pH meter, to adjust the acid-base property of the solution to pH 6.5. Further, the mixture was diluted with a solvent.
(2) Preparation of Compound V Administration Product
An 8 N sodium hydroxide aqueous solution was added dropwise to 100 mL of roughly purified solution I in small amounts, while checking the pH with a pH meter, to adjust the acid-base property of the solution to pH 8.6, followed by heating at 121° C. for 30 minutes, and further the mixture was diluted with a solvent (the pH of the solution after the heating changed to about pH 6.2 due to acid formation by hydrolysis reaction).
(Test on Liver Dysfunction Suppression Effect)
The aforementioned administration products (1) and (2) were dissolved in a solvent composed of oligosaccharide, cyclic oligosaccharide, and D-sorbitol to give a solution, and the final concentration of compounds I and V dissolved in the solution administered was adjusted to 6 mg/mL. The solution in an amount of 6 g/kg as calculated from specific gravity of the solution was orally administered to 8 week-old Wistar male rats (CHARLES RIVER LABORATORIES JAPAN, INC.) for 7 days with free access to commercially available solid feed and tap water. The solvent free from the aforementioned compounds (1) and (2) in an amount of 6 g/kg was orally administered to the control animals for 7 days. On the 7th day after the start of administration, a 750 mg/kg dose of galactosamine hydrochloride (Wako Pure Chemical Industries, Ltd.) was intraperitoneally administered to each of the animals to which the control and compounds I and V were administered, and the abdomen was opened on the 9th day after the start of administration under pentobarbital anesthesia (50 mg/kg), to collect heparinized blood from the abdominal aorta. The obtained blood was separated into blood plasma, and the AST and ALT values thereof were measured by the JSCC standardization-corresponding method. In FIG. 14, the results are shown as average+standard deviation (the number of animals of each group was 20). Symbol * represents a significant difference (p<0.05) from the control group, which was tested by the Dunnett's test after the one-way analysis of variance.

Row | SMILES | ALT value in blood plasma | AST value in blood plasma
1 | O=C(O)CC(C(=O)O)N1C(=O)CC(O)(CC(=O)O)C1=O (stereo not shown) [compound I] | significantly low | significantly low
2 | O=C(O)CC(NC(=O)CC(O)(CC(=O)O)C(=O)O)C(=O)O (stereo not shown) [compound V] | significantly low | significantly low
